Source: ChEMBL document CHEMBL2434896, “Carbonic anhydrase inhibitors. Synthesis of heterocyclic 4-substituted pyridine-3-sulfonamide derivatives and their inhibition of the human cytosolic isozymes I and II and transmembrane tumor-associated isozymes IX and XII” (Eur J Med Chem, 2013)
Calls of active or inactive are those of the source. No cut-off for these calls is given here.

Key:
Malme-3M = test: Growth inhibition of human MALME-3M cells at 10 uM after 48 hrs by sulforhodamine B assay; type: functional
LOX IMVI = test: Growth inhibition of human LOXIMVI cells at 10 uM after 48 hrs by sulforhodamine B assay; type: functional
U-251 = test: Growth inhibition of human U251 cells at 10 uM after 48 hrs by sulforhodamine B assay; type: functional
SNB-75 = test: Growth inhibition of human SNB75 cells at 10 uM after 48 hrs by sulforhodamine B assay; type: functional
SF-539 = test: Growth inhibition of human SF539 cells at 10 uM after 48 hrs by sulforhodamine B assay; type: functional; details: SF-539, 48 h, read-out: GI
SF-295 = test: Growth inhibition of human SF295 cells at 10 uM after 48 hrs by sulforhodamine B assay; type: functional
SF-268 = test: Growth inhibition of human SF268 cells at 10 uM after 48 hrs by sulforhodamine B assay; type: functional
SW-620 = test: Growth inhibition of human SW620 cells at 10 uM after 48 hrs by sulforhodamine B assay; type: functional
HCT-116 = test: Growth inhibition of human HCT116 cells at 10 uM after 48 hrs by sulforhodamine B assay; type: functional
HCC 2998 = test: Growth inhibition of human HCC2998 cells at 10 uM after 48 hrs by sulforhodamine B assay; type: functional
COLO 205 = test: Growth inhibition of human COLO205 cells at 10 uM after 48 hrs by sulforhodamine B assay; type: functional
NCI-H460 = test: Growth inhibition of human NCI-H460 cells at 10 uM after 48 hrs by sulforhodamine B assay; type: functional
NCI-H322M = test: Growth inhibition of human NCI-H322M cells at 10 uM after 48 hrs by sulforhodamine B assay; type: functional
NCI-H226 = test: Growth inhibition of human NCI-H226 cells at 10 uM after 48 hrs by sulforhodamine B assay; type: functional
HOP-92 = test: Growth inhibition of human HOP92 cells at 10 uM after 48 hrs by sulforhodamine B assay; type: functional
A549 = test: Growth inhibition of human A549/ATCC cells at 10 uM after 48 hrs by sulforhodamine B assay; type: functional; details: A549, 48 h, read-out: GI
SR = test: Growth inhibition of human SR cells at 10 uM after 48 hrs by sulforhodamine B assay; type: functional; details: read-out: GI
MOLT-4 = test: Growth inhibition of human MOLT4 cells at 10 uM after 48 hrs by sulforhodamine B assay; type: functional; details: MOLT-4, 48 h, read-out: GI
K562 = test: Growth inhibition of human K562 cells at 10 uM after 48 hrs by sulforhodamine B assay; type: functional
CCRF-CEM = test: Growth inhibition of human CCRF-CEM cells at 10 uM after 48 hrs by sulforhodamine B assay; type: functional
Carbonic anhydrase 9 = Carbonic anhydrase 9 (Homo sapiens, UniProt Q16790); test: Inhibition of human carbonic anhydrase 9 after 15 mins by stopped flow CO2 hydration assay
MDA-MB-468 = test: Growth inhibition of human MDA-MB-468 cells at 10 uM after 48 hrs by sulforhodamine B assay; type: functional
T47D = test: Growth inhibition of human T47D cells at 10 uM after 48 hrs by sulforhodamine B assay; type: functional; details: read-out: GI
BT-549 = test: Growth inhibition of human BT549 cells at 10 uM after 48 hrs by sulforhodamine B assay; type: functional; details: BT-549, 48 h, read-out: GI
Hs-578T = test: Growth inhibition of human Hs 578T cells at 10 uM after 48 hrs by sulforhodamine B assay; type: functional
MDA-MB-231 = test: Growth inhibition of human MDA-MB-231 cells at 10 uM after 48 hrs by sulforhodamine B assay; type: functional
MCF7 = test: Growth inhibition of human MCF7 cells at 10 uM after 48 hrs by sulforhodamine B assay; type: functional
DU-145 = test: Growth inhibition of human DU145 cells at 10 uM after 48 hrs by sulforhodamine B assay; type: functional
PC-3 = test: Growth inhibition of human PC3 cells at 10 uM after 48 hrs by sulforhodamine B assay; type: functional; details: PC-3, 48 h, read-out: GI
UO-31 = test: Growth inhibition of human UO31 cells at 10 uM after 48 hrs by sulforhodamine B assay; type: functional; details: UO-31, 48 h, read-out: GI
TK-10 = test: Growth inhibition of human TK10 cells at 10 uM after 48 hrs by sulforhodamine B assay; type: functional
SN12C = test: Growth inhibition of human SN12C cells at 10 uM after 48 hrs by sulforhodamine B assay; type: functional
RXF 393 = test: Growth inhibition of human RXF393 cells at 10 uM after 48 hrs by sulforhodamine B assay; type: functional
CAKI-1 = test: Growth inhibition of human CAKI-1 cells at 10 uM after 48 hrs by sulforhodamine B assay; type: functional
ACHN = test: Growth inhibition of human ACHN cells at 10 uM after 48 hrs by sulforhodamine B assay; type: functional
A498 = test: Growth inhibition of human A498 cells at 10 uM after 48 hrs by sulforhodamine B assay; type: functional; details: A498, 48 h, read-out: GI
786-0 = test: Growth inhibition of human 786-0 cells at 10 uM after 48 hrs by sulforhodamine B assay; type: functional
SK-OV-3 = test: Growth inhibition of human SKOV3 cells at 10 uM after 48 hrs by sulforhodamine B assay; type: functional
OVCAR-8 = test: Growth inhibition of human OVCAR8 cells at 10 uM after 48 hrs by sulforhodamine B assay; type: functional
OVCAR-5 = test: Growth inhibition of human OVCAR5 cells at 10 uM after 48 hrs by sulforhodamine B assay; type: functional; details: OVCAR-5, 48 h, read-out: GI
OVCAR-4 = test: Growth inhibition of human OVCAR4 cells at 10 uM after 48 hrs by sulforhodamine B assay; type: functional
OVCAR-3 = test: Growth inhibition of human OVCAR3 cells at 10 uM after 48 hrs by sulforhodamine B assay; type: functional
IGROV-1 = test: Growth inhibition of human IGROV1 cells at 10 uM after 48 hrs by sulforhodamine B assay; type: functional
UACC-62 = test: Growth inhibition of human UACC62 cells at 10 uM after 48 hrs by sulforhodamine B assay; type: functional
SK-MEL-5 = test: Growth inhibition of human SK-MEL-5 cells at 10 uM after 48 hrs by sulforhodamine B assay; type: functional
SK-MEL-2 = test: Growth inhibition of human SK-MEL-2 cells at 10 uM after 48 hrs by sulforhodamine B assay; type: functional
MDA-MB-435 = test: Growth inhibition of human MDA-MB-435 cells at 10 uM after 48 hrs by sulforhodamine B assay; type: functional
M14 = test: Growth inhibition of human M14 cells at 10 uM after 48 hrs by sulforhodamine B assay; type: functional

Compound: NS(=O)(=O)c1cnccc1N1CCC(Cc2ccccc2)CC1
- inhibition of growth at 10 µM (Malme-3M; read-out: GI): 4%
- growth inhibition (GI) (LOX IMVI): inactive
- growth inhibition (GI) (U-251): inactive
- growth inhibition (GI) (SNB-75): inactive
- inhibition of growth at 10 µM (SF-539): 4%
- growth inhibition (GI) (SF-295): inactive
- growth inhibition (GI) (SF-268): inactive
- growth inhibition (GI) (SW-620): inactive
- inhibition of growth at 10 µM (HCT-116; HCT-116, 48 h, read-out: GI): 10%
- growth inhibition (GI) (HCC 2998): inactive
- growth inhibition (GI) (COLO 205): inactive
- growth inhibition (GI) (NCI-H460): inactive
- growth inhibition (GI) (NCI-H322M): inactive
- inhibition of growth at 10 µM (NCI-H226; NCI-H226, 48 h, read-out: GI): 12%
- inhibition of growth at 10 µM (HOP-92; HOP-92, 48 h, read-out: GI): 39%
- inhibition of growth at 10 µM (A549): 1%
- inhibition of growth at 10 µM (SR): 18%
- inhibition of growth at 10 µM (MOLT-4): 9%
- inhibition of growth at 10 µM (K562; K562, 48 h, read-out: GI): 9%
- inhibition of growth at 10 µM (CCRF-CEM; read-out: GI): 3%
- Ki (Carbonic anhydrase 9): 136 nM
- inhibition of growth at 10 µM (MDA-MB-468; MDA-MB-468, 48 h, read-out: GI): 8%
- inhibition of growth at 10 µM (T47D): 10%
- inhibition of growth at 10 µM (BT-549): 13%
- growth inhibition (GI) (Hs-578T): inactive
- growth inhibition (GI) (MDA-MB-231): inactive
- growth inhibition (GI) (MCF7): inactive
- growth inhibition (GI) (DU-145): inactive
- inhibition of growth at 10 µM (PC-3): 2%
- inhibition of growth at 10 µM (UO-31): 21%
- growth inhibition (GI) (TK-10): inactive
- inhibition of growth at 10 µM (SN12C; read-out: GI): 1%
- growth inhibition (GI) (RXF 393): inactive
- inhibition of growth at 10 µM (CAKI-1; CAKI-1, 48 h, read-out: GI): 3%
- growth inhibition (GI) (ACHN): inactive
- inhibition of growth at 10 µM (A498): 8%
- growth inhibition (GI) (786-0): inactive
- inhibition of growth at 10 µM (SK-OV-3; SK-OV-3, 48 h, read-out: GI): 2%
- inhibition of growth at 10 µM (OVCAR-8; OVCAR-8, 48 h, read-out: GI): 1%
- inhibition of growth at 10 µM (OVCAR-5): 1%
- inhibition of growth at 10 µM (OVCAR-4; OVCAR-4, 48 h, read-out: GI): 2%
- growth inhibition (GI) (OVCAR-3): inactive
- inhibition of growth at 10 µM (IGROV-1; IGROV-1, 48 h, read-out: GI): 3%
- inhibition of growth at 10 µM (UACC-62; UACC-62, 48 h, read-out: GI): 3%
- inhibition of growth at 10 µM (SK-MEL-5; SK-MEL-5, 48 h, read-out: GI): 4%
- growth inhibition (GI) (SK-MEL-2): inactive
- growth inhibition (GI) (MDA-MB-435): inactive
- growth inhibition (GI) (M14): inactive

Compound: NS(=O)(=O)c1cnccc1N1CCN(Cc2ccc3c(c2)OCO3)CC1
- growth inhibition (GI) (Malme-3M): inactive
- inhibition of growth at 10 µM (LOX IMVI; read-out: GI): 8%
- growth inhibition (GI) (U-251): inactive
- inhibition of growth at 10 µM (SNB-75; SNB-75, 48 h, read-out: GI): 9%
- inhibition of growth at 10 µM (SF-539): 2%
- growth inhibition (GI) (SF-295): inactive
- growth inhibition (GI) (SF-268): inactive
- growth inhibition (GI) (SW-620): inactive
- growth inhibition (GI) (HCT-116): inactive
- growth inhibition (GI) (HCC 2998): inactive
- growth inhibition (GI) (COLO 205): inactive
- growth inhibition (GI) (NCI-H460): inactive
- growth inhibition (GI) (NCI-H322M): inactive
- growth inhibition (GI) (NCI-H226): inactive
- growth inhibition (GI) (HOP-92): inactive
- inhibition of growth at 10 µM (A549): 2%
- inhibition of growth at 10 µM (SR): 9%
- inhibition of growth at 10 µM (MOLT-4): 5%
- growth inhibition (GI) (K562): inactive
- growth inhibition (GI) (CCRF-CEM): inactive
- Ki (Carbonic anhydrase 9): 89.4 nM
- growth inhibition (GI) (MDA-MB-468): inactive
- inhibition of growth at 10 µM (T47D): 6%
- inhibition of growth at 10 µM (BT-549): 7%
- growth inhibition (GI) (Hs-578T): inactive
- growth inhibition (GI) (MDA-MB-231): inactive
- growth inhibition (GI) (MCF7): inactive
- growth inhibition (GI) (DU-145): inactive
- inhibition of growth at 10 µM (PC-3): 1%
- inhibition of growth at 10 µM (UO-31): 13%
- growth inhibition (GI) (TK-10): inactive
- growth inhibition (GI) (SN12C): inactive
- growth inhibition (GI) (RXF 393): inactive
- growth inhibition (GI) (CAKI-1): inactive
- growth inhibition (GI) (ACHN): inactive
- inhibition of growth at 10 µM (A498): 10%
- growth inhibition (GI) (786-0): inactive
- growth inhibition (GI) (SK-OV-3): inactive
- growth inhibition (GI) (OVCAR-8): inactive
- inhibition of growth at 10 µM (OVCAR-5): 2%
- growth inhibition (GI) (OVCAR-4): inactive
- growth inhibition (GI) (OVCAR-3): inactive
- growth inhibition (GI) (IGROV-1): inactive
- growth inhibition (GI) (UACC-62): inactive
- growth inhibition (GI) (SK-MEL-5): inactive
- growth inhibition (GI) (SK-MEL-2): inactive
- growth inhibition (GI) (MDA-MB-435): inactive
- inhibition of growth at 10 µM (M14; M14, 48 h, read-out: GI): 2%
